{"source": "patent US20100190755A1", "about": "“TETRACYCLINE COMPOUNDS FOR THE TREATMENT OF RHEUMATOID ARTHRITIS AND RELATED METHODS OF TREATMENT” (priority 2008, published 2010)", "key": {"[1]": {"test_system": "E. coli ATCC25922 (tetracycline sensitive)", "experiment": "E. coli MIC, broth micro-dilution per CLSI guidelines (Table 3)", "assay_type": "cell-based"}, "[2]": {"test_system": "Protein synthesis (E. coli S30 Extract System)", "experiment": "Protein synthesis inhibition, in vitro transcription/translation assay (E. coli S30 Extract System for Circular DNA)", "assay_type": "biochemical"}, "[3]": {"experiment": "Pharmacokinetics in rats after i.v. and oral dosing", "assay_type": "in vivo", "conditions": "rat", "protocol": "Pre-cannulated (jugular vein and carotid artery for i.v. group and carotid artery for oral group) male CD/IGS rats (approximately 250 g) were used. Rats were fasted overnight prior to dosing with access to food restored 2 hours after dosing. Rats were administered with approximately 0.25 mL compound (1 mg/kg dose) for i.v. route (via jugular vein over 20 seconds) or 0.5 mL solution (5 mg/kg dose) orally. Blood (300 μL) was collected in tubes with EDTA anticoagulant at various time points, centrifuged and plasma collected and stored frozen at −20° C. Animals were euthanized by CO2 following the final blood collection. Plasma was extracted (0.1% trifluoroacetic acid in 67% acetonitrile/33% water) and levels of compound quantified by HPLC/MS against a standard curve."}, "[4]": {"test_system": "collagen-induced arthritis (CIA) in male DBA/1 mice", "experiment": "Murine collagen-induced arthritis (CIA) model, Example 2", "assay_type": "in vivo, mouse", "protocol": "Four non-antibacterial analogues of minocycline (J, W, AF and AT) were synthesized and tested in the murine model of the disease, collagen-induced arthritis (CIA) (See supra). Male DBA/1 mice were immunized intradermally with 200 μg of bovine type II collagen and boosted with collagen three weeks later. Minocycline and four non-antibacterial minocycline derivatives were administered i.p. beginning after disease onset. Paw thickness was measured and animals were scored daily.\n(§1) • 1. Male DBA/1 mice were immunized i.d. with an emulsion of 200 μg bovine type II collagen in Complete Freund's Adjuvant. • 2. On day 21, mice received i.d. boost of 100 μg collagen in Incomplete Freund's Adjuvant • 3. Compounds were administered i.p. daily for 7 days starting from disease onset (day 3-4 after boost). • 4. Foot swelling was measured by an engineering micrometer and disease severity was scored accordingly (1, erythema and mild swelling confined to the tarsal or ankle joint; 2, erythema and mild swelling extending from the ankle to the mid-foot; 3, erythema and moderate swelling extending from the ankle to the metatarsal joints; 4, erythema and severe swelling encompassing the ankle, foot, and digits). • 5. Change (Δ) of paw thickness=sum of paw thickness from 4 paws of a mouse (experimental)−sum of baseline paw thickness from 4 paws of the same mouse. • 6. % inhibition=cumulative A paw thickness (disease group−compound-treated group)/cumulative A paw thickness (disease group)"}, "MMP-9": {"test_system": "MMP-9", "experiment": "Paw extract biomarker ELISA, CIA mice: MMP-9", "assay_type": "in vivo, mouse", "conditions": "paw extracts from CIA mice", "protocol": "as §1\n(§2) • 1. Paws were collected from mice after 5-7 days of dosing and dissected free of skin. • 2. The paws were then homogenized in ice-cold PBS (2 ml/4 paws/mouse) containing 1× protease inhibitor using a Polytron homogenizer. • 3. Debris and particles were removed from the homogenized samples by centrifugation. • 4. Liquid layers were collected for MMP-9, IL-1, IL-6, RANKL, MCP-1, and TNFα analysis using ELISA kits from R & D System."}, "IL-1": {"test_system": "IL-1", "experiment": "Paw extract biomarker ELISA, CIA mice: IL-1", "assay_type": "in vivo, mouse", "conditions": "paw extracts from CIA mice", "protocol": "as §1, §2"}, "IL-6": {"test_system": "IL-6", "experiment": "Paw extract biomarker ELISA, CIA mice: IL-6", "assay_type": "in vivo, mouse", "conditions": "paw extracts from CIA mice", "protocol": "as §1, §2"}, "MCP-1": {"test_system": "MCP-1", "experiment": "Paw extract biomarker ELISA, CIA mice: MCP-1", "assay_type": "in vivo, mouse", "conditions": "paw extracts from CIA mice", "protocol": "as §1, §2"}, "RANKL": {"test_system": "RANKL", "experiment": "Paw extract biomarker ELISA, CIA mice: RANKL", "assay_type": "in vivo, mouse", "conditions": "paw extracts from CIA mice", "protocol": "as §1, §2"}, "[5]": {"test_system": "cytokines (IL-1, IL-6, RANKL and MCP-1) and a matrix metalloproteinase (MMP-9)", "experiment": "Paw extract biomarker ELISA, CIA mice: whole panel (statements in words)", "assay_type": "in vivo, mouse", "protocol": "as §1, §2"}, "S. aureus RN450": {"test_system": "S. aureus RN450", "experiment": "Antibacterial activity MIC, Gram+ (Table 9)", "assay_type": "cell-based", "conditions": "Staphylococcus aureus, CAMHB, 35° C., approximately 18 hr", "outline": "(§3)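 MIC taken as lowest compound level preventing growth after about 18 h at 35 °C (ambient air), read by microplate reader with visual check. Fresh log-phase cultures were inoculated to about 5×10^5 CFU/ml final into CAMHB dilutions spanning 200 to 0.098 μg/ml, starting from a DMSO stock.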"}, "E. coli 25922": {"test_system": "E. coli 25922", "experiment": "Antibacterial activity MIC, Gram- (Table 9)", "assay_type": "cell-based", "conditions": "Escherichia coli, CAMHB, 35° C., approximately 18 hr", "outline": "as §3"}, "[6]": {"test_system": "collagen-induced arthritis (CIA) in male DBA/1 mice", "experiment": "CIA model, Example 3 (cumulative scores vs untreated controls)", "assay_type": "in vivo", "conditions": "Mus musculus", "outline": "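Immunised intradermally with bovine type II collagen in CFA and boosted at day 21 in IFA. After onset, tetracycline derivatives given daily i.p. or orally for 8 to 15 days. Daily visual inflammation scores (0–4 scale) and micrometer paw thickness summed into cumulative scores.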"}, "[7]": {"conditions": "25 mg/kg/day i.p., dosed after disease onset"}}, "data": [{"smiles": "COC(=O)c1cc(N(C)C)c2c(c1O)C(=O)C1=C(O)[C@]3(O)C(=O)C(C(N)=O)=C(O)C[C@@H]3C[C@@H]1C2", "note": "[Compound W]", "values": [{"measurement": "anti-bacterial activity compared to minocycline", "setting": "[1]", "value": "no anti-bacterial activity"}, {"measurement": "MIC", "setting": "[1]; Escherichia coli, E. coli ATCC25922, cation-adjusted Mueller Hinton broth", "value": "> 64", "unit": "µg/mL"}, {"measurement": "IC50", "setting": "[2]", "value": "> 100", "unit": "µM"}, {"measurement": "bioavailability", "setting": "[3]; male, CD/IGS, plasma, after oral dosing of 5 mg/kg, read-out: PK Parameters (Rat) % F, fraction of absorption", "value": 52, "unit": "%"}, {"measurement": "bio-available after oral dosing in rats", "setting": "[3]; oral", "value": "bio-available"}, {"measurement": "half-life", "setting": "[3]; plasma, male CD/IGS rats, 1 mg/kg i.v. or 5 mg/kg oral, read-out: PK Parameters (Rat) T1/2 (converted)", "value": 180, "unit": "min"}, {"measurement": "% Inhibition (Change in Paw Thickness) AVG", "setting": "[4]; [7]", "value": 60, "unit": "%"}, {"measurement": "% Inhibition (Clinical Score) AVG", "setting": "[4]; [7]", "value": 40, "unit": "%"}, {"measurement": "EC50 in inflammation suppression in CIA mice", "setting": "[4]; CIA mice, i.p. daily", "value": 20, "unit": "mg/kg/day i.p."}, {"measurement": "Change in Paw Thickness (mm) Mean", "setting": "[4]; day 1 of dosing, 25 mg/kg/day i.p.", "value": 0.71, "unit": "mm"}, {"measurement": "Change in Paw Thickness (mm) Mean", "setting": "[4]; day 2 of dosing, 25 mg/kg/day i.p.", "value": 0.41, "unit": "mm"}, {"measurement": "Change in Paw Thickness (mm) Mean", "setting": "[4]; day 3 of dosing, 25 mg/kg/day i.p.", "value": 0.46, "unit": "mm"}, {"measurement": "Change in Paw Thickness (mm) Mean", "setting": "[4]; day 4 of dosing, 25 mg/kg/day i.p.", "value": 0.56, "unit": "mm"}, {"measurement": "Change in Paw Thickness (mm) Mean", "setting": "[4]; day 5 of dosing, 25 mg/kg/day i.p.", "value": 0.51, "unit": "mm"}, {"measurement": "Change in Paw Thickness (mm) Mean", "setting": "[4]; day 6 of dosing, 25 mg/kg/day i.p.", "value": 0.45, "unit": "mm"}, {"measurement": "Change in Paw Thickness (mm) Mean", "setting": "[4]; day 7 of dosing, 25 mg/kg/day i.p.", "value": 0.35, "unit": "mm"}, {"measurement": "Change in Paw Thickness (mm) Mean", "setting": "[4]; day 8 of dosing, 25 mg/kg/day i.p.", "value": 0.60, "unit": "mm"}, {"measurement": "Effects on reduction of paw swelling and clinical score compared to either minocycline or methotrexate", "setting": "[4]; murine CIA model", "value": "greater"}, {"measurement": "joint inflammation when administered after disease onset", "setting": "[4]; murine CIA model", "value": "inhibited joint inflammation"}, {"measurement": "Percent level of Biomarker Tissue [c] Compared to Untreated Control, MMP-9 AVG", "setting": "MMP-9", "value": 72, "unit": "%"}, {"measurement": "Percent level of Biomarker Tissue [c] Compared to Untreated Control, IL-1 AVG", "setting": "IL-1", "value": 32, "unit": "%"}, {"measurement": "Percent level of Biomarker Tissue [c] Compared to Untreated Control, IL-6 AVG", "setting": "IL-6", "value": 28, "unit": "%"}, {"measurement": "Percent level of Biomarker Tissue [c] Compared to Untreated Control, MCP-1 AVG", "setting": "MCP-1", "value": 28, "unit": "%"}, {"measurement": "Percent level of Biomarker Tissue [c] Compared to Untreated Control, RANKL AVG", "setting": "RANKL", "value": 27, "unit": "%"}, {"measurement": "inhibition of inflammatory/osteoclastic cytokines (MMP-9, IL-1, IL-6, MCP-1, RANKL) in vivo", "setting": "[5]", "value": "better than minocycline"}, {"measurement": "MIC", "setting": "S. aureus RN450", "value": 4, "unit": "µg/mL"}, {"measurement": "MIC", "setting": "E. coli 25922", "value": "> 64", "unit": "µg/mL"}, {"measurement": "inhibition in vivo at 6 mg/kg", "setting": "[6]; Dose 6 mg/kg", "value": 25, "unit": "%"}, {"measurement": "inhibition in vivo at 12 mg/kg", "setting": "[6]; Dose 12 mg/kg", "value": 32, "unit": "%"}, {"measurement": "inhibition in vivo at 25 mg/kg", "setting": "[6]; Dose 25 mg/kg", "value": 60, "unit": "%"}]}]}
